From publication PMC2680961, “Homologous desensitization of signalling by the alpha (α) isoform of the human thromboxane A2 receptor: A specific role for nitric oxide signalling” (Biochimica et Biophysica Acta, 2007)
Changes are numbered by the printed parent chain. “And” between values parts separate entries of the source, which are not always exact repeats. Equal values may be shown once.

Key:
TPα^S239A = target: T1, TPα^S239A (Homo sapiens, UniProt P21731, S239A); assay: [3H]SQ29,548 radioligand binding, Scatchard analysis, HEK.TPα^S239A
T1 construct: expressed in transfected cells
T1 sequence (P21731 1-343 S239A): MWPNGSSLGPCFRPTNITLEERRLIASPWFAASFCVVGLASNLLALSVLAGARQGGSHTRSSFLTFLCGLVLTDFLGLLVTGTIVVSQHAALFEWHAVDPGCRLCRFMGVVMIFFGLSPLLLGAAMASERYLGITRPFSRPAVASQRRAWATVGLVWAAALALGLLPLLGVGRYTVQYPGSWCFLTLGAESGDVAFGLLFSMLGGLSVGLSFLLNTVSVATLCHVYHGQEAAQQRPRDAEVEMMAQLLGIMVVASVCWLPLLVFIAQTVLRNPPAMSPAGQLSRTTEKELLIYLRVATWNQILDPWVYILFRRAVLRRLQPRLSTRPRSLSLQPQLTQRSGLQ
Description: (§1) Cells were harvested by centrifugation at 500×g at 4 °C for 5 min and washed three times with ice-cold Ca^2+/Mg^2+-free phosphate-buffered saline (PBS). TP radioligand binding assays were carried out at 30 °C for 30 min in 100 μl reactions in the presence of 0–40 nM [^3H] […] Protein determinations were carried out using the Bradford assay.
(§2) Radioligand binding and Scatchard analysis data were analysed using GraphPad Prisim V4.0 programme (GraphPad Software Inc., San Diego CA, USA). Statistical analyses were carried out using the unpaired Student's t test using the Statworks Analysis Package. p-values ≤ 0.01 indicated statistically significant differences.

TPα^S340A = target: T2, TPα^S340A (Homo sapiens, UniProt P21731, S340A); assay: [3H]SQ29,548 radioligand binding, Scatchard analysis, HEK.TPα^S340A
T2 construct: expressed in transfected cells
T2 sequence (P21731 1-343 S340A): T1 sequence (P21731 1-343 S239A) with A239S, S340A
Description: as §1, §2

TPα^S329,331A = target: T3, TPα^S329,331A (Homo sapiens, UniProt P21731, S329A/S331A); assay: [3H]SQ29,548 radioligand binding, Scatchard analysis, HEK.TPα^S329,331A
T3 construct: expressed in transfected cells
T3 sequence (P21731 1-343 S329A/S331A): T1 sequence (P21731 1-343 S239A) with A239S, S329A, S331A
Description: as §1, §2

TPα = target: T4, TPα (Homo sapiens, UniProt P21731); assay: Agonist-mediated TP phosphorylation in whole cells, HEK.TPα; assay type: cell-based; settings: 1 μM U46619 10 min, [32P]orthophosphate labelling, PhosphorImage
T4 construct: expressed in transfected cells
T4 sequence (P21731 1-343): T1 sequence (P21731 1-343 S239A) with A239S
Description: (§3) Agonist-mediated TP phosphorylation in whole cells (1.8–2 × 10^6 cells/10 cm dish) was performed essentially as previously described. Briefly, cells were transiently co-transfected with pADVA (10 μg), pCMV:Gαq (25 μg) plus pcDNA:βArrestin2 (25 μg) approximately 48 h prior to labelling. Thereafter, cells were washed once in phosphate-free DMEM, 10% dialysed FBS and were metabolically labelled for 60 min in the same medium (2 ml/10 cm dish) containing 100 μCi/ml [^32P] orthophosphate (8000–9000 Ci/mmol) at 37 °C, 5% CO2. Where appropriate, the PKG kinase inhibitor KT 5823 (50 nM) or its vehicle was added during the labelling period. Thereafter, U46619 (1 μM) or an equivalent volume of vehicle (0.01% ethanol in HBS; 20 μl) were added and cells were incubated for 10 min at 37 °C, 5% CO2. Reactions were terminated by transferring the dishes to ice and aspirating the labelled medium and HA-epitope tagged TP receptors were processed and immunoprecipitated using the anti-HA 101R antibody as previously described. Electroblots were then exposed to Xomat XAR (Kodak) film to detect ^32P-labelled proteins. Thereafter, blots were subject to phosphorimage analysis, and the intensities of agonist-induced phosphorylation were expressed in arbitrary units relative to basal (vehicle-stimulated) levels. In parallel experiments, cells were incubated under identical conditions in the absence of [^32P] orthophosphate; HA-tagged TP receptors were immunoprecipitated from the same cell lines using the anti-HA 101R antibody and immunoblots were screened using the anti-HA 3F10 horseradish peroxidase-conjugated antibody.

TPα^S331A = target: T5, TPα^S331A (Homo sapiens, UniProt P21731, S331A); assay: Agonist-mediated TP phosphorylation in whole cells, HEK.TPα^S331A; assay type: cell-based; settings: 1 μM U46619 10 min
T5 construct: expressed in transfected cells
T5 sequence (P21731 1-343 S331A): T1 sequence (P21731 1-343 S239A) with A239S, S331A
Description: as §3

Bmax (pmol/mg protein ± S.E.M.) (TPα^S239A) [pmol/mg protein]	Bmax (pmol/mg protein ± S.E.M.) (TPα^S340A) [pmol/mg protein]	Bmax (pmol/mg protein ± S.E.M.) (TPα^S329,331A) [pmol/mg protein]	U46619-mediated TPα phosphorylation relative to basal (vehicle) (TPα)	U46619-mediated TPα^S331A phosphorylation relative to basal (vehicle) (TPα^S331A) [fold]	Compound
4.35 ± 0.04	5.3 ± 0.04	2.9 ± 0.19	–	–	O=C(O)CCC/C=C\C[C@@H]1[C@H](CNNC(=O)Nc2ccccc2)[C@H]2CC[C@@H]1O2 [SQ29,548]
–	–	–	5–7 fold and 5 fold	2	CCCCC[C@H](O)/C=C/[C@@H]1[C@@H](C/C=C\CCCC(=O)O)[C@H]2CO[C@@H]1C2 [U46619]
